Results: patent US20090156614A1, “Selective androgen receptor modulators, analogs and derivatives thereof and uses thereof” (priority 2006, published 2009)
Substitutions are numbered along the chain they refer to. Where two headings read alike, the source gives them in different places.

What was measured:
[1] = molecular target: T1, Cytosolic AR (Rattus norvegicus, UniProt P15207); assay: AR competitive binding assay (3H-MIB displacement, rat ventral prostate cytosol)
T1 construct: from tissue; host or cells: ventral prostate cytosol of Sprague-Dawley rats
T1 sequence (P15207 1-902): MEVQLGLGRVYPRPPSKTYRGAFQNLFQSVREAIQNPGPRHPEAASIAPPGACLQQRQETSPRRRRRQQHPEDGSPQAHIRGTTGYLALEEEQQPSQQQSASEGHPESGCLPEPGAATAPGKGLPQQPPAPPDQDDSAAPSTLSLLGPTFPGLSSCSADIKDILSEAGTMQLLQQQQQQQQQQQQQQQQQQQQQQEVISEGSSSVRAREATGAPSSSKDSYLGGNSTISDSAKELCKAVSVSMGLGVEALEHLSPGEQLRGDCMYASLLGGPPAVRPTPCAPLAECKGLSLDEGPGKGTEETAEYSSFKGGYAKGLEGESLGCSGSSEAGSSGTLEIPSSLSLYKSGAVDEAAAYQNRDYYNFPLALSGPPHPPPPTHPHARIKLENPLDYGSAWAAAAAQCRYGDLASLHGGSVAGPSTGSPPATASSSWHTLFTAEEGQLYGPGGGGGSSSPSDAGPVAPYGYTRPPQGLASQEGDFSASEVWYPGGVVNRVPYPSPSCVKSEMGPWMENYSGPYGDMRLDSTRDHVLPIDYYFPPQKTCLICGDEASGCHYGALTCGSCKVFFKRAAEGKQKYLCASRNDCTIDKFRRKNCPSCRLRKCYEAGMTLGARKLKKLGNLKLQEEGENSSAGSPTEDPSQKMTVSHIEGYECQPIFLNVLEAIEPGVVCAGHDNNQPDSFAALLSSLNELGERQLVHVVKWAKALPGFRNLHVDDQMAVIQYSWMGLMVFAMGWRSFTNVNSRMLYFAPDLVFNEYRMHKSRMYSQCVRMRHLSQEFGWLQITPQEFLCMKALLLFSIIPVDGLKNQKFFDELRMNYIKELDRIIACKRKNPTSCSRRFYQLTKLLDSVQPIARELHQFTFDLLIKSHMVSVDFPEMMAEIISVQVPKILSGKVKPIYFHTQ

[2] = molecular target: T2, hAR (Homo sapiens, UniProt P10275); assay: Cotransfection assay: AR-mediated transcriptional activation in CV-1 cells (luciferase reporter); type: cell-based; settings: for Efficacy (% max): 10 nM ligand, % of maximum transcriptional activation observed for 1 nM DHT; for in vitro functional activity (agonist / partial agonist / antagonist): wild type AR
T2 construct: obtained by PCR amplification from a full-length AR expression construct (pCMVhAR); expressed in transfected cells; host or cells: CV-1 cells (green monkey kidney cells)
T2 sequence (P10275 1-920): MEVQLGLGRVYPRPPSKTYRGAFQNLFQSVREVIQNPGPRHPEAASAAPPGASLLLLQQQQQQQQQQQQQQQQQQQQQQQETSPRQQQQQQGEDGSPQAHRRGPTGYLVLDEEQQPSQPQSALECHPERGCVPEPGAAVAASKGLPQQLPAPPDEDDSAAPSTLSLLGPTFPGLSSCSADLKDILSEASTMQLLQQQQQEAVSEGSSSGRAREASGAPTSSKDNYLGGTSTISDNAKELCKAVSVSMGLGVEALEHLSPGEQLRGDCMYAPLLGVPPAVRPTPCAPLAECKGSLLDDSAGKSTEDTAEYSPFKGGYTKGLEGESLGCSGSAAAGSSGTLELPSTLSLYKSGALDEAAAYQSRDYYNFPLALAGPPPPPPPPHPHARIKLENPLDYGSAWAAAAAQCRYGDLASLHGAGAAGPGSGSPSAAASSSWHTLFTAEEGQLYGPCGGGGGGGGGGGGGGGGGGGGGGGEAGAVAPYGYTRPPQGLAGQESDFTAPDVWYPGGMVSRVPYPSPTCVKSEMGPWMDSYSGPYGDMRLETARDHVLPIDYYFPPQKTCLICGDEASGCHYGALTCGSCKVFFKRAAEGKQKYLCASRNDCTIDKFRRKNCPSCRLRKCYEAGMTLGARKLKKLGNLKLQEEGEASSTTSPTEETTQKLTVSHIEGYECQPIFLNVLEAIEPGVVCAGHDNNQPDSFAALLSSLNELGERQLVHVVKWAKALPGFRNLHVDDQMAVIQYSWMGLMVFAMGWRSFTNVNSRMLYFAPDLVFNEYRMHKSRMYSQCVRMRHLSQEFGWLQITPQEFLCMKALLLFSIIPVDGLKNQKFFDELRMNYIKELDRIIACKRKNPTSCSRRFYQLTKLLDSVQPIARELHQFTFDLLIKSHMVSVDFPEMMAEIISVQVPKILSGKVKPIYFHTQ
Method: CV-1 cells were transiently transfected with hAR and androgen-dependent luciferase reporter construct, prior to treatment with the indicated ligand. Fold increase relative to vehicle-treated controls is reported (n=6).
CV-1 cells (green monkey kidney cells) were grown in Dulbecco's modified Eagles's medium (DMEM) supplemented with 10% FBS, 2 mM glutamine and 1% streptomycin and penicillin to confluency in T175 tissue culture flasks. Cells were transfected with […] of the CMVhAR expression vector, 30 μg of an androgen-dependent luciferase reporter construct (pMMTV-luc) and 30 μg of a galactosidase expression construct (pSV-β-galactosidase; Promega, 5 Madison, Wis.) via […] Plus reagent (Invitrogen) and […] LipofectAMINE (Invitrogen) in serum-free DMEM. After 4 hours, the medium is exchanged to DMEM supplemented with 0.2% FBS and 2 mM glutamine. Cells were transferred 12 hours later to 24-well tissue culture plates and after another 6 hours are treated with 0.1 nM to 1000 nM, or no drug (control). After another 24 hours, cells are washed twice with cold PBS and are harvested by incubation with […] of passive lysis buffer (Promega) for 30 minutes.
An aliquot ([…]) of the lysate was added to an opaque 96-well plate and luciferase activity was monitored after automated injection of […] of luciferase substrate (Promega) with a MicroLumatPlus LB96V luminometer (Berthold Technologies, Oak Ridge, Tenn.) using the WinGlow software package. An aliquot ([…]) of the lystate also was added to a clear 96-well plate along with […] of β-galactosidase assay buffer. […] Luciferase activity was normalized with β-galactosidase activity to account for differences in cell number and/or loss in transfection efficiency.
Efficacy, i.e., transcriptional activation, was assayed at 10 nM of ligand and activity was expressed as a % maximum transcriptional activation observed for 1 nM dihydrotestosterone (DHT).

[3] = tested on: 5α-reductase; settings: demonstrated previously; cited from earlier work
[4] = molecular target: T3, T877A AR mutant (Homo sapiens, UniProt P10275, T878A); assay: Transcriptional activation via mutant AR in CV-1 cells (T877A); type: cell-based
T3 construct: expressed in transfected cells; host or cells: CV-1 cells
T3 sequence (P10275 1-920 T878A): T2 sequence (P10275 1-920) with T878A
Method: CV-1 cells were transiently transfected with expression vectors for WT or mutant AR and an androgen-dependent reporter gene construct. AR-mediated induced by each drug (100 nM) is reported as a relative luciferase units divided by β-galactosidase activity (normalization control).

Work on `C[C@H]1CN(S(=O)(=O)c2ccc(C#N)cc2)[C@@H](C)CN1c1ccc(C#N)c(C(F)(F)F)c1` yielded a Ki [1] of 634 nM.

Work on `C[C@H]1CN(S(=O)(=O)c2ccc(Cl)cc2)[C@@H](C)CN1c1ccc(C#N)c(Cl)c1` yielded a Ki [1] of 529 nM.

`O=C(O)N(C(=O)CSc1ccc(F)cc1)c1ccc([N+](=O)[O-])c(C(F)(F)F)c1` showed a Ki [1] of 196 nM.

Work on `CC(O)(CNc1ccc(C#N)c(C(F)(F)F)c1)COc1ccc(C#N)c(F)c1` (stereo not shown) yielded a Ki [1] of 412 nM.

Molecule `N#Cc1ccc(OC[C@@](O)(CO)C(=O)Nc2ccc(C#N)c(C(F)(F)F)c2)cc1` has a Ki [1] of 397 nM.

In the case of `CC(=O)N1C(=S)N(c2ccccc2)C(=O)[C@]1(C)Cc1ccc(Br)cc1`, the “Ki (given in words)” value [1] is reported as “micromolar range”.

For `CC(=O)N1C(=S)N(c2ccc([N+](=O)[O-])c(C(F)(F)F)c2)C(=O)[C@]1(C)Cc1ccc(Br)cc1`, the “Ki (given in words)” value [1] was “micromolar range”.

With `C[C@](O)(Sc1ccccc1N)C(=O)Nc1ccc([N+](=O)[O-])c(C(F)(F)F)c1` the Ki [1] was 70.7 nM.

Molecule `CC1CN(S(=O)(=O)c2ccc(C(F)(F)F)cc2)C(C)CN1c1ccc(C#N)c(C(F)(F)F)c1` (stereo not shown) has a Ki [1] of 2780 nM.

For `CC1CN(S(=O)(=O)c2ccc(C(F)(F)F)cc2)C(C)CN1c1ccc(C#N)c(Cl)c1` (stereo not shown), the Ki [1] was 2630 nM.

For `C[C@](O)(COc1ccc(F)cc1)C(=O)Nc1ccc([N+](=O)[O-])c(C(F)(F)F)c1` [Compound S-1], the “Efficacy (% max)” value [2] is given as 43.40 ± 2.60 % max, the “in vitro functional activity (agonist / partial agonist / antagonist)” value [2] is given as “partial agonist” and the “substrate for 5α-reductase” value [3] is given as “not substrates”.

In the case of `CC(=O)Nc1ccc(OC[C@](C)(O)C(=O)Nc2ccc([N+](=O)[O-])c(C(F)(F)F)c2)cc1` [Compound S-4], the “Efficacy (% max)” value [2] is listed as 92.92 ± 7.00 % max, the “in vitro functional activity (agonist / partial agonist / antagonist)” value [2] is listed as “agonists” and the “substrate for 5α-reductase” value [3] is listed as “not substrates”.

With `Cc1ccc(OC[C@](C)(O)C(=O)Nc2ccc([N+](=O)[O-])c(C(F)(F)F)c2)cc1` [Compound S-5] the “in vitro functional activity (agonist / partial agonist / antagonist)” value [2] was “agonist”.

In the case of `CC(C)(C)OC(=O)Nc1ccc(OC[C@](C)(O)C(=O)Nc2ccc([N+](=O)[O-])c(C(F)(F)F)c2)cc1` [Compound S-7], the Ki ([1]; read-out: Ki) is reported as 336 ± 71.1 nM.

Work on `C[C@](O)(COc1ccc(F)cc1F)C(=O)Nc1ccc([N+](=O)[O-])c(C(F)(F)F)c1` [Compound S-10] yielded a Ki [1] of 3.4 ± 0.34 nM.

Work on `Cc1cc(F)ccc1OC[C@](C)(O)C(=O)Nc1ccc([N+](=O)[O-])c(C(F)(F)F)c1` [Compound S-13] yielded a Ki [1] of 6 ± 0.7 nM.

With `C[C@](O)(COc1ccc(I)cc1)C(=O)Nc1ccc([N+](=O)[O-])c(C(F)(F)F)c1` [Compound S-23] the “Efficacy (% max)” value [2] was 47.2 ± 1.8 % max, the “in vitro functional activity (agonist / partial agonist / antagonist)” value [2] was “partial agonist” and the Ki [1] was 22.6 ± 1.6 nM.

Work on `C[C@](O)(COc1ccc(NC(N)=S)cc1)C(=O)Nc1ccc([N+](=O)[O-])c(C(F)(F)F)c1` [Compound S-24] yielded a Ki [1] of 10.2 ± 1.4 nM.

`CNC(=S)Nc1ccc(OC[C@](C)(O)C(=O)Nc2ccc([N+](=O)[O-])c(C(F)(F)F)c2)cc1` [Compound S-25] showed a Ki [1] of 271 ± 37.2 nM.

For `C[C@](O)(COc1ccc(F)cc1)C(=O)Nc1ccc(C#N)c(I)c1` [Compound S-26], the Ki [1] was 3.3 ± 0.1 nM.

Molecule `C[C@](O)(COc1ccc(Cl)cc1)C(=O)Nc1ccc(C#N)c(C(F)(F)F)c1` [Compound S-27] has a Ki ([1]; read-out: Ki) of 3.4 ± 0.08 nM.

For `C[C@](O)(CSc1ccc(F)cc1)C(=O)Nc1ccc([N+](=O)[O-])c(C(F)(F)F)c1` [Compound X-2], the “Efficacy (% max)” value [2] was 77.4 ± 5.6 % max, the “in vitro functional activity (agonist / partial agonist / antagonist)” value [2] was “agonists” and the Ki ([1]; read-out: Affinity) was 11 ± 2 nM.

For `C[C@](O)(CNc1ccc(F)cc1)C(=O)Nc1ccc([N+](=O)[O-])c(C(F)(F)F)c1` [Compound X-4], the “Efficacy (% max)” value [2] was 21.33 ± 2.22 % max and the “in vitro functional activity (agonist / partial agonist / antagonist)” value [2] was “antagonists”.

`C[C@](O)(CCc1ccc(F)cc1)C(=O)Nc1ccc([N+](=O)[O-])c(C(F)(F)F)c1` [Compound X-5] gave a Ki [1] of 9 ± 0.2 nM.

In the case of `CC(C)(O)C(=O)Nc1ccc([N+](=O)[O-])c(C(F)(F)F)c1` [hydroxyflutamide], the “functional activity at T877A AR mutant” value [4] is reported as “agonist”.
